# Results published in patent publication US20240174662A1, “SMALL MOLECULE INHIBITORS OF SALT INDUCIBLE KINASES” (Janssen Biotech, Inc., priority 2021, published 2024).
# Several values for one entry are separate records, joined by “and”; a condition that tells them apart may be missing. Identical values can stand only once.
# Target: SIK2 (Homo sapiens (Human), UniProt Q9H0K1)
# Assay: SIK2 Enzymatic Assay Version 2 (High ATP)
# Assay type: biochemical
# Conditions: 3 mM ATP and 200 μM HDAC5tide final, ADP-Glo Max luminescence
# Outline: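 Luminescent ADP-Glo Max read-out: depletion reagent 2 h, then detection reagent 1 h. Before the reaction, compounds were incubated 30 min with enzyme added at 6 nM (twice final concentration), with all steps at room temperature.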
# Chain of SIK2 (Q9H0K1 whole entry, species assumed): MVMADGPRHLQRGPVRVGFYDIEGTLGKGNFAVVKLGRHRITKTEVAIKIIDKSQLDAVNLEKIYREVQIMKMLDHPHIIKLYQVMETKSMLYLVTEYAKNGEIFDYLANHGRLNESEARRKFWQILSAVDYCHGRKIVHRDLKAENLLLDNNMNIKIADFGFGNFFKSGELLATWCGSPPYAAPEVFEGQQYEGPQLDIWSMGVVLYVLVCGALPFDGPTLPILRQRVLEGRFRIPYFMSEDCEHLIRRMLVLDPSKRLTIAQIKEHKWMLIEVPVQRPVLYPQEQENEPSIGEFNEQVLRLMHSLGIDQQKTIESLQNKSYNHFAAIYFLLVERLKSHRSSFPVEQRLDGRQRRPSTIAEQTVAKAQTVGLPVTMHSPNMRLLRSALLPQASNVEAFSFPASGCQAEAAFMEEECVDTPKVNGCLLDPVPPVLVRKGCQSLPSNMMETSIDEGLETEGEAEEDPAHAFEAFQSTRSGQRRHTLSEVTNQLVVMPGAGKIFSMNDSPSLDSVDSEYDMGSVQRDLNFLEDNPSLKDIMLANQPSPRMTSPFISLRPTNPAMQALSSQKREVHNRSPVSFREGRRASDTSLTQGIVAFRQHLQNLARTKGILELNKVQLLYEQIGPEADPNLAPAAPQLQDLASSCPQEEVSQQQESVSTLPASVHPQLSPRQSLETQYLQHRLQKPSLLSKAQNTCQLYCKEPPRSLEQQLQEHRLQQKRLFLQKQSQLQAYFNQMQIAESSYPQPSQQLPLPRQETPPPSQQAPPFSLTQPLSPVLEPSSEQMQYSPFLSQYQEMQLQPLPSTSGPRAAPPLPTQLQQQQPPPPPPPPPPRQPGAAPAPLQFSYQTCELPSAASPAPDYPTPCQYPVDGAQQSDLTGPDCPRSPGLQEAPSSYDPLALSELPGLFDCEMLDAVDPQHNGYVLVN
row,SMILES,IC50
1,"COc1cnc(Nc2cc3cc(-c4c(OC[C@H]5CCN5C)cnn4C)ccn3n2)cn1 [Example 154, N-(5-methoxypyrazin-2-yl)-5-[2-methyl-4-[[(2R)-1-methylazetidin-2-yl]methoxy]pyrazol-3-yl]pyrazolo[1,5-a]pyridin-2-amine]",7.9 nM
2,"CN1CC[C@@H]1COc1cnn(C)c1-c1ccn2nc(Nc3cnc(OC(F)F)cn3)cc2c1 [Example 155, N-[5-(difluoromethoxy)pyrazin-2-yl]-5-[2-methyl-4-[[(2R)-1-methylazetidin-2-yl]methoxy]pyrazol-3-yl]pyrazolo[1,5-a]pyridin-2-amine]",6.6 nM
3,"CN1CC[C@@H]1COc1cnn(C)c1-c1ccn2nc(NC(=O)[C@H]3C[C@H]3c3ccccc3)cc2c1 [Example 158, (1S,2R)—N-[5-[2-methyl-4-[[(2R)-1-methylazetidin-2-yl]methoxy]pyrazol-3-yl]pyrazolo[1,5-a]pyridin-2-yl]-2-phenyl-cyclopropanecarboxamide]",47.7 nM
4,"CCN1CC[C@@H]1COc1cnn(C)c1-c1ccn2nc(Nc3cnc(C(F)(F)F)cn3)cc2c1 [Example 160, 5-[4-[[(2R)-1-ethylazetidin-2-yl]methoxy]-2-methyl-pyrazol-3-yl]-N-[5-(trifluoromethyl)pyrazin-2-yl]pyrazolo[1,5-a]pyridin-2-amine]",2.5 nM and 3.6 nM
5,"CCN1CC[C@@H]1COc1cnn(C)c1-c1ccn2nc(Nc3ccnc(C(F)(F)F)n3)cc2c1 [Example 161, 5-[4-[[(2R)-1-ethylazetidin-2-yl]methoxy]-2-methyl-pyrazol-3-yl]-N-[2-(trifluoromethyl)pyrimidin-4-yl]pyrazolo[1,5-a]pyridin-2-amine]",< 0.847 nM
6,"CCN1CC[C@@H]1COc1cnn(C)c1-c1ccn2nc(Nc3cc(C(F)(F)F)nc(C)n3)cc2c1 [Example 162, 5-[4-[[(2R)-1-ethylazetidin-2-yl]methoxy]-2-methyl-pyrazol-3-yl]-N-[2-methyl-6-(trifluoromethyl)pyrimidin-4-yl]pyrazolo[1,5-a]pyridin-2-amine]",< 0.847 nM
7,"CCN1CC[C@@H]1COc1cnn(C)c1-c1ccn2nc(Nc3ccnc(OC)n3)cc2c1 [Example 163, 5-[4-[[(2R)-1-ethylazetidin-2-yl]methoxy]-2-methyl-pyrazol-3-yl]-N-(2-methoxypyrimidin-4-yl)pyrazolo[1,5-a]pyridin-2-amine]",2.2 nM
8,"CCN1CC[C@@H]1COc1cnn(C)c1-c1ccn2nc(Nc3cc(C(F)(F)F)ncn3)cc2c1 [Example 164, 5-[4-[[(2R)-1-ethylazetidin-2-yl]methoxy]-2-methyl-pyrazol-3-yl]-N-[6-(trifluoromethyl)pyrimidin-4-yl]pyrazolo[1,5-a]pyridin-2-amine]",1.5 nM
9,"CCN1CC[C@@H]1COc1cnn(C)c1-c1ccn2nc(Nc3ncc(C)c(C)n3)cc2c1 [Example 165, N-(4,5-dimethylpyrimidin-2-yl)-5-[4-[[(2R)-1-ethylazetidin-2-yl]methoxy]-2-methyl-pyrazol-3-yl]pyrazolo[1,5-a]pyridin-2-amine]",26.2 nM
10,"CCN1CC[C@@H]1COc1cnn(C)c1-c1ccn2nc(Nc3ccc(OC)cn3)cc2c1 [Example 166, 5-[4-[[(2R)-1-ethylazetidin-2-yl]methoxy]-2-methyl-pyrazol-3-yl]-N-(5-methoxy-2-pyridyl)pyrazolo[1,5-a]pyridin-2-amine]",1.8 nM
11,"CCN1CC[C@@H]1COc1cnn(C)c1-c1ccn2nc(Nc3cc(OC)ncn3)cc2c1 [Example 167, 5-[4-[[(2R)-1-ethylazetidin-2-yl]methoxy]-2-methyl-pyrazol-3-yl]-N-(6-methoxypyrimidin-4-yl)pyrazolo[1,5-a]pyridin-2-amine]",2.7 nM
12,"Cn1ncc(CO[C@H]2C[C@H]3COC[C@@H](C2)N3)c1-c1ccn2nc(NC(=O)C3CC3)cc2c1 [Example 183, N-[5-[2-methyl-4-[[(1S,5R)-3-oxa-9-azabicyclo[3.3.1]nonan-7-yl]oxymethyl]pyrazol-3-yl]pyrazolo[1,5-a]pyridin-2-yl]cyclopropanecarboxamide]",11.7 nM
13,"CN1[C@@H]2COC[C@H]1C[C@@H](OCc1cnn(C)c1-c1ccn3nc(NC(=O)C4CC4)cc3c1)C2 [Example 185, N-[5-[2-methyl-4-[[(1S,5R)-9-methyl-3-oxa-9-azabicyclo[3.3.1]nonan-7-yl]oxymethyl]pyrazol-3-yl]pyrazolo[1,5-a]pyridin-2-yl]cyclopropanecarboxamide]",18.3 nM

# Results, then the compound that gave them:
row,IC50,SMILES
1,23 nM,"CCN1CC[C@H]1COc1cnn(C)c1-c1ccn2nc(Nc3cc(C)nc(C(F)(F)F)n3)cc2c1 [Example 168, 5-[4-[[(2S)-1-ethylazetidin-2-yl]methoxy]-2-methyl-pyrazol-3-yl]-N-[6-methyl-2-(trifluoromethyl)pyrimidin-4-yl]pyrazolo[1,5-a]pyridin-2-amine]"
2,38.7 nM,"CCc1cc(Nc2cc3cc(-c4c(OC[C@@H]5CCN5CC)cnn4C)ccn3n2)nc(C)n1 [Example 169, 5-[4-[[(2S)-1-ethylazetidin-2-yl]methoxy]-2-methyl-pyrazol-3-yl]-N-(6-ethyl-2-methyl-pyrimidin-4-yl)pyrazolo[1,5-a]pyridin-2-amine]"
3,0.9 nM,"CCN1CC[C@@H]1COc1cnn(C)c1-c1ccn2nc(Nc3ccc(=O)n(C)n3)cc2c1 [Example 170, 6-[[5-[4-[[(2R)-1-ethylazetidin-2-yl]methoxy]-2-methyl-pyrazol-3-yl]pyrazolo[1,5-a]pyridin-2-yl]amino]-2-methyl-pyridazin-3-one]"
4,< 0.847 nM,"CCN1CC[C@@H]1COc1cnn(C)c1-c1ccn2nc(Nc3cc(C)nc(C4CC4)n3)cc2c1 [Example 171, N-(2-cyclopropyl-6-methyl-pyrimidin-4-yl)-5-[4-[[(2R)-1-ethylazetidin-2-yl]methoxy]-2-methyl-pyrazol-3-yl]pyrazolo[1,5-a]pyridin-2-amine]"
5,< 0.847 nM,"CCc1cc(Nc2cc3cc(-c4c(OC[C@H]5CCN5CC)cnn4C)ccn3n2)nc(C)n1 [Example 172, 5-[4-[[(2R)-1-ethylazetidin-2-yl]methoxy]-2-methyl-pyrazol-3-yl]-N-(6-ethyl-2-methyl-pyrimidin-4-yl)pyrazolo[1,5-a]pyridin-2-amine]"
6,< 0.847 nM,"CCN1CC[C@@H]1COc1cnn(C)c1-c1ccn2nc(Nc3cc(C)nc(OC)n3)cc2c1 [Example 173, 5-[4-[[(2R)-1-ethylazetidin-2-yl]methoxy]-2-methyl-pyrazol-3-yl]-N-(2-methoxy-6-methyl-pyrimidin-4-yl)pyrazolo[1,5-a]pyridin-2-amine]"
7,< 0.847 nM,"CCN1CC[C@@H]1COc1cnn(C)c1-c1ccn2nc(Nc3ccc4nc(C)cn4n3)cc2c1 [Example 174, N-[5-[4-[[(2R)-1-ethylazetidin-2-yl]methoxy]-2-methyl-pyrazol-3-yl]pyrazolo[1,5-a]pyridin-2-yl]-2-methyl-imidazo[1,2-b]pyridazin-6-amine]"
8,< 0.847 nM,"CCN1CC[C@@H]1COc1cnn(C)c1-c1ccn2nc(Nc3ccc4nccn4n3)cc2c1 [Example 175, N-[5-[4-[[(2R)-1-ethylazetidin-2-yl]methoxy]-2-methyl-pyrazol-3-yl]pyrazolo[1,5-a]pyridin-2-yl]imidazo[1,2-b]pyridazin-6-amine]"
9,72.7 nM,"CCN1CC[C@@H]1COc1cnn(C)c1-c1ccn2nc(Nc3ncc(F)cn3)cc2c1 [Example 176, (R)-5-(4-((1-ethylazetidin-2-yl)methoxy)-1-methyl-1H-pyrazol-5-yl)-N-(5-fluoropyrimidin-2-yl)pyrazolo[1,5-a]pyridin-2-amine]"
10,1.5 nM,"CCN1CC[C@@H]1COc1cnn(C)c1-c1ccn2nc(Nc3cc(C)nc(C(C)(C)C)n3)cc2c1 [Example 177, N-(2-tert-butyl-6-methyl-pyrimidin-4-yl)-5-[4-[[(2R)-1-ethylazetidin-2-yl]methoxy]-2-methyl-pyrazol-3-yl]pyrazolo[1,5-a]pyridin-2-amine]"
11,< 0.847 nM,"CCN1CC[C@@H]1COc1cnn(C)c1-c1ccn2nc(Nc3cc(C)c(=O)n(C)n3)cc2c1 [Example 178, 6-[[5-[4-[[(2R)-1-ethylazetidin-2-yl]methoxy]-2-methyl-pyrazol-3-yl]pyrazolo[1,5-a]pyridin-2-yl]amino]-2,4-dimethyl-pyridazin-3-one]"
12,< 0.847 nM,"CCN1CC[C@@H]1COc1cnn(C)c1-c1ccn2nc(Nc3cc(C)nc(CC4CC4)n3)cc2c1 [Example 179, N-[2-(cyclopropylmethyl)-6-methyl-pyrimidin-4-yl]-5-[4-[[(2R)-1-ethylazetidin-2-yl]methoxy]-2-methyl-pyrazol-3-yl]pyrazolo[1,5-a]pyridin-2-amine]"
13,2.1 nM,"CCN1CC[C@@H]1COc1cnn(C)c1-c1ccn2nc(Nc3cnc(OC)cn3)cc2c1 [Example 180, 5-[4-[[(2R)-1-ethylazetidin-2-yl]methoxy]-2-methyl-pyrazol-3-yl]-N-(5-methoxypyrazin-2-yl)pyrazolo[1,5-a]pyridin-2-amine]"
14,2.2 nM,"CCN1CC[C@@H]1COc1cnn(C)c1-c1ccn2nc(Nc3cnc(OC(F)F)cn3)cc2c1 [Example 181, N-[5-(difluoromethoxy)pyrazin-2-yl]-5-[4-[[(2R)-1-ethylazetidin-2-yl]methoxy]-2-methyl-pyrazol-3-yl]pyrazolo[1,5-a]pyridin-2-amine]"
15,34.4 nM,"Cn1ncc(CO[C@@H]2CCNC2)c1-c1ccn2nc(NC(=O)C3CC3)cc2c1 [Example 182, N-[5-[2-methyl-4-[[(3R)-pyrrolidin-3-yl]oxymethyl]pyrazol-3-yl]pyrazolo[1,5-a]pyridin-2-yl]cyclopropanecarboxamide]"
16,7.3 nM,"Cn1ncc(COC2(C(F)(F)F)CNC2)c1-c1ccn2nc(NC(=O)C3CC3)cc2c1 [Example 186, N-[5-[2-methyl-4-[[3-(trifluoromethyl)azetidin-3-yl]oxymethyl]pyrazol-3-yl]pyrazolo[1,5-a]pyridin-2-yl]cyclopropanecarboxamide]"
17,23.5 nM,"C[C@@H]1NC[C@H]1OCc1cnn(C)c1-c1ccn2nc(NC(=O)C3CC3)cc2c1 [Example 187, N-[5-[2-methyl-4-[[(2S,3R)-2-methylazetidin-3-yl]oxymethyl]pyrazol-3-yl]pyrazolo[1,5-a]pyridin-2-yl]cyclopropanecarboxamide]"
